Columns and labels:
FZD10 = molecular target: T1, FZD10 (Homo sapiens, UniProt Q9ULW2); experiment: NanoBRET screen HiBiT-FZD10 in HEK293; format: binding; settings: FZD10
T1 construct: purchased Promega (in-house HiBiT-GPCR construct library, NanoBRET)
T1 sequence (Q9ULW2 21-581): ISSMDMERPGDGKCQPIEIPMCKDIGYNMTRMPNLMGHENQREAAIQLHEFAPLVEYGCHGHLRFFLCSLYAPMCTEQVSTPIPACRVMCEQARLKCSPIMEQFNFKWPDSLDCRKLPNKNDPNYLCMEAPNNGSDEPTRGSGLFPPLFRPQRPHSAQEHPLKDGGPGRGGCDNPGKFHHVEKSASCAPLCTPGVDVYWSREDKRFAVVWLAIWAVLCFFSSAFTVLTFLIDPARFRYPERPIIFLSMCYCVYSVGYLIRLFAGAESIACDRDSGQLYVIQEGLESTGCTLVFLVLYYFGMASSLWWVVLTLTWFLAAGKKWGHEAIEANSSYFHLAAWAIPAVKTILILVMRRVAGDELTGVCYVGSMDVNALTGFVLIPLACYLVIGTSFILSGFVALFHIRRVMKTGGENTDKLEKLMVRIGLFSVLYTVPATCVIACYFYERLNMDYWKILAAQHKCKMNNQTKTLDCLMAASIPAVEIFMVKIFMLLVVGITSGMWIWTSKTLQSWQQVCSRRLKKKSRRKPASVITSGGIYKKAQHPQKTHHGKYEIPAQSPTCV
Experimental: (§1) Each tracer candidate was screened across the entire library of HiBiT-GPCR constructs using NanoBRET as the detection modality. As depicted in Figure 4A, the specificity of interactions was evaluated through decrease in BRET due to competitive displacement of a bound tracer by excess parental compound. Each tracer was analyzed for binding to each HiBiT-GPCR fusion in the absence and in the presence of competing parental compound. Briefly, HEK293 cells were transfected with HiBiT-GPCR constructs diluted into promoterless DNA to reduce expression and maximize translocation to the cell surface. Each tracer candidate was then screened at concentrations of 1 μM and 0.1 μM across cells expressing these fusions. Cells were treated for 1.5 h with tracer either alone or in the presence of 20 μM competing parental compound (i.e., control). BRET was measured upon addition of purified LgBiT and subsequent complementation with HiBiT genetically fused to a GPCR. The specificity of interactions was assessed through a decrease in BRET signal due to competitive displacement of the bound tracer. To further gauge the robustness of these interactions, the fold response over the control (i.e., BRETtracer/BRETcontrol) was calculated. We chose a 1.5-fold response, which translates to ≥7-fold signal over noise as the minimal threshold required to score an interaction as positive.
(§2) HiBiT-GPCR DNA constructs were diluted in 10 mM Tris pH 8 to a final concentration of 0.01 μg/μL, arrayed in 96-well plates and stored at −20 °C. For transfection, HEK293 cells were suspended in Opti-MEM (without phenol red) supplemented with 2% fetal bovine serum (Seradigm) and 100 units/mL penicillin–streptomycin (Gibco) at a final concentration of 220,000 cells/mL and dispensed into white 96-well plates at 90 μL/well. Subsequent transfections and screens were carried using an Agilent Bravo Automated Liquid Handling Platform. First, the 96-well HiBiT DNA arrays were diluted 25-fold in Opti-MEM (without serum or phenol red) to a final concentration of 0.0004 μg/μL and 20 μL of the diluted DNAs were transferred into new 96-well plates. Next, promoterless carrier DNA (1 μg/μL) was diluted 25-fold (0.04 μg/μL) and then dispensed into the diluted arrays at 20 μL/well. Following brief mixing, Viafect transfection reagent (Promega) diluted 16-fold into Opti-MEM was dispensed into the plates at 40 μL/well. After mixing by pipetting, plates were incubated for 10 min on the pipetting station deck. The DNA-transfection reagent complexes were then added to plates containing cells. To facilitate the screen, 10 μL of DNA-transfection reagent complexes were added in duplicates to the top 4 and bottom 4 rows, resulting in two identical 48-well arrays per plate. Plates with transfected cells were incubated for 18–20 h at 37 °C/5% CO2. A screen of each tracer across the entire library using two different concentrations requires duplicate plates of transfected cells. Depending on the number of tracers being screened, transfections can be scaled up using the same ratios. The next day, for each tracer, four 20× screening solutions in tracer dilution buffer (Promega) were prepared: two duplicates at final concentration of 20 μM and two duplicates at a final concentration of 2 μM. […] The four resulting solutions were diluted 4-fold in Opti-MEM without serum or phenol red to generate 5× solutions (5 µM and 0.5 µM tracer +/− 100 μM competing compound). To screen the library, a BioTek MultiFlo FX liquid dispenser was used to dispense 22.5 µL of tracer solution to the top 4 rows and 22.5 µL tracer + competing compound solution to the 4 bottom rows. Plates were briefly mixed on an orbital shaker and incubated for 1.5 h at room temperature. […] Plates were briefly mixed on an orbital shaker and incubated for 15 min to allow complementation.

CHRM4 = molecular target: T2, CHRM4 (Homo sapiens, UniProt P08173); experiment: NanoBRET screen HiBiT-CHRM4 in HEK293; format: binding; settings: CHRM4
T2 construct: purchased Promega (in-house HiBiT-GPCR construct library, NanoBRET)
T2 sequence (P08173 1-479): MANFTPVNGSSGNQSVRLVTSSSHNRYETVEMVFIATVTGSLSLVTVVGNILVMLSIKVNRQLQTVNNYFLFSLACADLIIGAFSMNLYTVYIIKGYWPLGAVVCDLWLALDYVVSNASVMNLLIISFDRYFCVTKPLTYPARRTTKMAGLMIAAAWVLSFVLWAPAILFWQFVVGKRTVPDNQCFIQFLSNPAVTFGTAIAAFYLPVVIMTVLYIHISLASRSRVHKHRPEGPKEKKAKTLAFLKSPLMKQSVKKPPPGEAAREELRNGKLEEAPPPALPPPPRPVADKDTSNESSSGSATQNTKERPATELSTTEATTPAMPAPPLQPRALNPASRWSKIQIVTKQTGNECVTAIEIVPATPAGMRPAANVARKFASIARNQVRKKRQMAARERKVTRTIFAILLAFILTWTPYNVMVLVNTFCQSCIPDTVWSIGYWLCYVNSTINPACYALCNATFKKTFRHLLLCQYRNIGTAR
Experimental: as §1, §2

Row | SMILES | NanoBRET Fold Response (FZD10; tracer 0.1μM) | NanoBRET Fold Response (FZD10; tracer 1μM) | NanoBRET Fold Response (CHRM4; tracer 0.1μM) | NanoBRET Fold Response (CHRM4; tracer 1μM)
1 | Cc1nc2n(c(=O)c1CCN1CCC(c3noc4cc(F)ccc34)CC1)CCCC2OC(=O)NCCOCCOCCOCCOCCNC(=O)CCc1ccc2n1[B-](F)(F)[N+]1=C(c3ccc[nH]3)C=CC1=C2 (stereo not drawn) [Risperidone-2-NB590] | 1.00 | 1.04 | 1.10 | 1.67
2 | CC(C)N(CC[C@H](c1ccccc1)c1cc(CCNC(=O)CCOCCOCCOCCOCCNC(=O)CCc2ccc3n2[B-](F)(F)[N+]2=C(c4ccc[nH]4)C=CC2=C3)ccc1O)C(C)C [Tolterodine-2-NB590] |  | 1.05 | 2.75 | 1.53
3 | CC(C)N(CC[C@H](c1ccccc1)c1cc(CCNC(=O)c2ccc(CNC(=O)CCc3ccc4n3[B-](F)(F)[N+]3=C(c5ccc[nH]5)C=CC3=C4)cc2)ccc1O)C(C)C [Tolterodine-BZ-NB590] | 0.97 | 1.06 | 3.69 | 2.39
4 | CCCn1c(=O)c2[nH]c(-c3ccc(OCC(=O)NCCNC(=O)CCOCCNC(=O)c4ccc(CNC(=O)CCc5ccc6n5[B-](F)(F)[N+]5=C(c7ccc[nH]7)C=CC5=C6)cc4)cc3)nc2n(CCC)c1=O [XAC-3-NB590] | 1.05 | 0.99 | 0.78 | 1.10

From article PMC8151276, “An Integrated Approach toward NanoBRET Tracers for Analysis of GPCR Ligand Engagement” (Molecules, 2021)
